Results: patent US12370183B2, “Compositions and methods for treating malaria” (Rutgers, The State University of New Jersey, priority 2020, dated 2025)
Where two headings read alike, the source gives them in different places.

Experiments:
[1] = tested on: resistant P. falciparum variant K1; assay: Potency against resistant P. falciparum variant K1 (EC50); type: cell-based; settings: Plasmodium falciparum, K1, read-out: K1 EC50 (μM)
Protocol: (§1) A high-throughput screen performed against the Plasmodium parasite. About 8,000 compounds were screened. Each hit was tested against resistant P. falciparum variants K1, V1S, D10DD, ATP4 1247, and C2B. Potency against these assays assured that the chemotype acts through a mechanism distinct from that of halofantrine, chloroquine, mefloquine, pyrimethamine, proguanil, atovaquone, and (+)SJ733. The toxicity of the compounds was also measured by testing their lethality against a BJ cell line (human fibroblasts). No TBNs were toxic. A structure activity investigation was performed in order to improve the EC50 of the TBNs to the single-digit nanomolar range, as well as to increase the water solubility.
(§2) Substituents were installed at N−2 by using a variety of methods. Reductive alkylation (Abdel-Magid, A. F.; Mehrman, S. J. A Review on the Use of Sodium Triacetoxyborohydride in the Reductive Amination of Ketones and Aldehydes. Org. Process Res. Dev. 2006, 10 (5), 971-1031) was a dependable technique that produced over fifteen analogues. Conjugate additions and nucleophilic substitutions provided most of the others. A type of reductive alkylation that uses carboxylic acids instead of aldehydes (the Beller reduction) led to two analogues (Sorribes, I.; Junge, K.; Beller, M. Direct Catalytic N-Alkylation of Amines with Carboxylic Acids. J. Am. Chem. Soc. 2014, 136 (40), 14314-14319. Some of the compounds listed were synthesized through other means, or were derived from other TBNs. Compounds 66 and 128 were produced by the amidation of acids 132 and 133, which had the corresponding substitution already installed. TBNs 93, and 94 were produced from the Pfitzinger products formed from the condensation of isatin with (R)-1-(1-phenylethyl)piperidin-4-one (134) and (S)-1-(1-phenylethyl)piperidin-4-one (135), respectively.

[2] = tested on: 3D7 strain of Plasmodium falciparum; assay: Potency in the 3D7 strain of Plasmodium falciparum (EC50); type: cell-based; settings: for EC50: Plasmodium falciparum
Source text: (§3) The present invention relates to methods of treating malaria with tetrahydrobenzonaphtyridine carboxanilide (TBN) derivatives and related pyrrolinones and hydrolysis products thereof. These compounds are active against Plasmodium falciparum strains that are resistant to multiple drugs currently on the market. The present invention further relates to novel compounds and pharmaceutical compositions comprising such compounds. The compounds have been synthesized and tested for their potency in the 3D7 strain of Plasmodium falciparum. Their cytotoxicity was also tested in the BJ human fibroblast line. No compounds show significant cytotoxicity.
as §1, §2

in vitro = type: cell-based; settings: human
Source text: as §3, §1

[3] = Solubility of the desbenzo analogue compared with 66; type: physicochemical
Protocol: For example, the melting point of 66 is 220° C. and the desbenzo analogue is 83.5° C.

[4] = 3D7, read-out: 3D7 Mean EC50 (μM)

Compound	EC50 [1] [µM]	EC50 [2, 4] [µM]	EC50 (in vitro) [µM]	improvement of potency by oxidation of the TBN to the pyrrolinone ([2]; 183 versus corresponding TBN 147)	EC50 ([2]; 3D7) [µM]	solubility, in words [3]
N#CCCN1CCc2nc3ccccc3c(C(=O)Nc3ccc(F)c(F)c3)c2C1 [Compound 113, 2-(2-Cyanoethyl)-N-(3,4-difluorophenyl)-1,2,3,4-tetrahydrobenzo[b][1,6]naphthyridine-10-carboxamide]	2.05 ± 0.256	1.62 ± 1.25	> 23.3	–	–	–
CN(C)C(=O)CCN1CCc2nc3ccccc3c(C(=O)Nc3ccc(F)c(F)c3)c2C1 [Compound 110, N-(3,4-Difluorophenyl)-2-(3-(dimethylamino)-3-oxopropyl)-1,2,3,4-tetrahydrobenzo[b][1,6]naphthyridine-10-carboxamide]	0.658	0.888 ± 0.459	> 23.3	–	–	–
C=CCN1CCc2nc3ccccc3c(C(=O)Nc3ccc(F)c(F)c3)c2C1 [Compound 92, 2-Allyl-N-(3,4-difluorophenyl)-1,2,3,4-tetrahydrobenzo[b][1,6]naphthyridine-10-carboxamide]	0.0719	0.128 ± 0.0238	> 23.3	–	–	–
COC(=O)CCN1CCc2nc3ccccc3c(C(=O)Nc3ccc(F)c(F)c3)c2C1 [Compound 109, Methyl 3-(10-((3,4-difluorophenyl)carbamoyl)-3,4-dihydrobenzo[b][1,6]naphthyridin-2(1H)-yl)propanoate]	0.487	0.673 ± 0.107	> 23.3	–	–	–
COc1ccc(NC(=O)c2c3c(nc4ccc(Cl)cc24)CCN(CCc2ccccc2)C3)cc1OC [Compound 170, 8-Chloro-N-(3,4-dimethoxyphenyl)-2-phenethyl-1,2,3,4-tetrahydrobenzo[b][1,6]naphthyridine-10-carboxamide]	–	0.116 ± 0.025	> 24	–	–	–
N#Cc1cc(N2C(=O)c3c4c(nc5cc(Cl)ccc35)CCN(CCc3ccccc3)C42)ccc1F (centres unmarked) [Compound 184, 5-(8-Chloro-1-oxo-3-phenethyl-2a,3,4,5-tetrahydrobenzo[b]pyrrolo[4,3,2-de][1,6]naphthyridin-2(1H)-yl)-2-fluorobenzonitrile]	–	0.0437 ± 0.021	> 24	–	–	–
N#Cc1cc(NC(=O)c2c3c(nc4cc(Cl)ccc24)CCN(CCc2ccccc2)C3)ccc1F [Compound 169, 7-Chloro-N-(3-cyano-4-fluorophenyl)-2-phenethyl-1,2,3,4-tetrahydrobenzo[b][1,6]naphthyridine-10-carboxamide]	–	0.04 ± 0.032	> 24	–	–	–
O=C(Nc1ccc(Cl)cc1)c1c2c(nc3cc(Cl)ccc13)CCN(CCc1ccccc1)C2 [Compound 165, 7-Chloro-N-(4-chlorophenyl)-2-phenethyl-1,2,3,4-tetrahydrobenzo[b][1,6]naphthyridine-10-carboxamide]	–	< 0.00809	> 24	–	–	–
O=C1c2c3c(nc4ccc(Cl)cc24)CCN(CCc2ccccc2)C3N1c1ccc(Br)cc1 (centres unmarked) [Compound 182, 2-(4-Bromophenyl)-9-chloro-3-phenethyl-2a,3,4,5-tetrahydrobenzo[b]pyrrolo[4,3,2-de][1,6]naphthyridin-1(2H)-one]	–	0.0396 ± 0.017	> 24	–	–	–
COc1ccc(N2C(=O)c3c4c(nc5cc(Cl)ccc35)CCN(CCc3ccccc3)C42)cc1OC (centres unmarked) [Compound 178, 8-Chloro-2-(3,4-dimethoxyphenyl)-3-phenethyl-2a,3,4,5-tetrahydrobenzo[b]pyrrolo[4,3,2-de][1,6]naphthyridin-1(2H)-one]	–	0.00446 ± 0.002	9.32 ± 6.69	–	–	–
O=C(Nc1ccc(Cl)cc1)c1c2c(nc3ccc(Cl)cc13)CCN(CCc1ccccc1)C2 [Compound 168, 8-Chloro-N-(4-chlorophenyl)-2-phenethyl-1,2,3,4-tetrahydrobenzo[b][1,6]naphthyridine-10-carboxamide]	–	< 0.0348	> 24	–	–	–
CC(c1ccccn1)N1CCc2nc3ccccc3c(C(=O)Nc3ccc(F)c(F)c3)c2C1 (centres unmarked) [Compound 90, N-(3,4-Difluorophenyl)-2-(1-(pyridin-2-yl)ethyl)-1,2,3,4-tetrahydrobenzo[b][1,6]naphthyridine-10-carboxamide]	0.0439	0.0603 ± 0.0234	> 11.7	–	–	–
CC(=O)O[C@H]1CO[C@H]2[C@@H]1OC[C@@H]2Oc1cccc(N2C(=O)c3c4c(nc5ccccc35)CCN(CCc3ccccc3)C42)c1 (stereo partly drawn) [Compound 183, (3S,3aR,6S,6aR)-6-(3-(1-Oxo-3-phenethyl-2a,3,4,5-tetrahydrobenzo[b]pyrrolo[4,3,2-de][1,6]naphthyridin-2(1H)-yl)phenoxy)hexahydrofuro[3,2-b]furan-3-yl Acetate]	–	0.0407 ± 0.012	> 24	nearly a hundred-fold	0.0407	–
CCOCCN1CCc2nc3ccccc3c3c2C1N(c1ccc(F)c(F)c1)C3=O (centres unmarked) [Compound 180, 2-(3,4-Difluorophenyl)-3-(2-ethoxyethyl)-2a,3,4,5-tetrahydrobenzo[b]pyrrolo[4,3,2-de][1,6]naphthyridin-1(2H)-one]	–	0.0087 ± 0.001	> 24	–	–	–
O=C(Nc1ccc(F)c(F)c1)c1ccnc2c1CN(Cc1ccccc1)CC2 [Compound 68, 6-Benzyl-N-(3,4-difluorophenyl)-5,6,7,8-tetrahydro-1,6-naphthyridine-4-carboxamide]	–	–	–	–	3.48	increased solubility versus 66
O=C(Nc1cccc(Cl)c1)c1c2c(nc3cc(Cl)ccc13)CCN(CCc1ccccc1)C2 [Compound 167, 7-Chloro-N-(3-chlorophenyl)-2-phenethyl-1,2,3,4-tetrahydrobenzo[b][1,6]naphthyridine-10-carboxamide]	–	0.0216 ± 0.012	> 24	–	–	–
COc1ccc(NC(=O)c2c3c(nc4cc(Cl)ccc24)CCN(CCc2ccccc2)C3)cc1OC [Compound 166, 7-Chloro-N-(3,4-dimethoxyphenyl)-2-phenethyl-1,2,3,4-tetrahydrobenzo[b][1,6]naphthyridine-10-carboxamide]	–	< 0.0132	> 24	–	–	–
